Assay results: paper PMC8869984, “Multifunctional Silver(I) Complexes with Metronidazole Drug Reveal Antimicrobial Properties and Antitumor Activity against Human Hepatoma and Colorectal Adenocarcinoma Cells” (Cancers, 2022)
≈ marks a conversion by molar mass, not a printed value. Read-outs that look alike come from different tables or passages of the source.

What was measured:
Balb/c 3T3 cells [1] = experiment: MTT assay (mitochondrial activity), 72 h exposure; assay type: cell-based, murine
Protocol: (§1) The human hepatoma (HepG2) and colorectal adenocarcinoma (Caco-2) cells were purchased from the American Type Culture Collection: ATCC HB-8065 and ATCC HTB-37, respectively. These cells were cultured in Minimum Essential Medium Eagle (MEME) (ATCC). The murine fibroblasts cell line (Balb/c 3T3 clone A31) (gift from the Department of Swine Diseases of the National Veterinary Research Institute in Pulawy) was cultured in Dulbecco’s Modified Eagle Medium (DMEM) (ATCC). The media were supplemented with 10% BCS (Balb/c 3T3), 10% FBS (HepG2), 20% FBS (Caco-2), 1% L-glutamine, 1% antibiotic solution. The cells were maintained in 75 cm^2 cell culture flasks (NUNC) in a humidified incubator at 37 °C in an atmosphere of 5% CO2. The medium was refreshed every two or three days, and the cells were trypsinized by 0.25% trypsin–0.02% EDTA after reaching 70–80% confluence. Single cell suspensions were prepared and adjusted to a density of 2 × 10^5 cell/mL^−1 (HepG2), 1 × 10^5 cell/mL^−1 (Caco-2) and 5 × 10^4 cell/mL^−1 (Balb/c 3T3). The cell suspension was transferred to 96-well plates (100 µL/well) and incubated for 24 h before the exposure to the studied compounds. Stock solutions of ligands and metal complexes were prepared in sterile water and diluted with culture medium to obtain a concentration range from 0.1 to 10 µM. The final concentration of sterile water was 0.1% in the medium. […] As a negative control, cultured cells were grown in the absence of studied compounds. Each concentration was tested in six replicates in three independent experiments. Cytotoxicity was assessed after 72 h of exposure of the cells to compounds. The medium was not changed during the incubation time.
The metabolic activity of living cells was assessed by the measurement of the activity of dehydrogenases. […] The plate was shaken for 15 min at room temperature and transferred to a microplate reader Synergy HTX multi-mode reader (BioTek® Instruments Inc., Winooski, VT, USA) to measure the absorbance at 570 nm, using a blank as a reference. Cytotoxicity was expressed as a percentage of the negative control. […]

H. pylori ATCC 43504 = experiment: micro-dilution broth method (MIC, MBC); assay type: cell-based
A. israeli ATCC 10049 = experiment: micro-dilution broth method (MIC, MBC); assay type: cell-based, Actinomyces israelii
P. acnes ATCC 11827 = experiment: micro-dilution broth method (MIC, MBC); assay type: cell-based, Propionibacterium acnes
E. coli ATCC 25922 = experiment: micro-dilution broth method (MIC, MBC); assay type: cell-based, Escherichia coli
Balb/c 3T3 cells [2] = experiment: NRU assay (lysosomal activity), 72 h exposure; assay type: cell-based, murine
Protocol: as §1
This method is based on staining living cells with neutral red, which readily diffuses through the plasma membrane and accumulates in lysosomes. […] After 10 min of shaking, the absorbance of the dissolved NR was measured using a Synergy HTX multi-mode reader (BioTek® Instruments Inc., Winooski, VT, USA) at 540 nm using a blank as a reference. Cytotoxicity was expressed as a percentage of the negative control. […]

B. cereus ATCC 10876 = experiment: micro-dilution broth method (MIC, MBC); assay type: cell-based, Bacillus cereus
[3] = test system: S. typhimurium ATCC 14028; experiment: micro-dilution broth method (MIC, MBC); assay type: cell-based, Salmonella Typhimurium
F. nucleatum ATCC 25586 = experiment: micro-dilution broth method (MIC, MBC); assay type: cell-based, Fusobacterium nucleatum
Caco-2 cells = experiment: LDH leakage assay (membrane integrity), 72 h exposure; assay type: cell-based, human; details: Caco-2, LDH
M. luteus ATCC 10240 = experiment: micro-dilution broth method (MIC, MBC); assay type: cell-based, Micrococcus luteus
B. fragilis ATCC 10240 = experiment: micro-dilution broth method (MIC, MBC); assay type: cell-based, Bacteroides fragilis
C. jejunii ATCC 33291 = experiment: micro-dilution broth method (MIC, MBC); assay type: cell-based, Campylobacter jejunii
[4] = H. pylori ATCC 43504, value in brackets
[5] = A. israeli ATCC 10049, value in brackets
[6] = P. acnes ATCC 11827, value in brackets
[7] = E. coli ATCC 25922, value in brackets
[8] = B. cereus ATCC 10876, value in brackets
[9] = S. typhimurium ATCC 14028, value in brackets
[10] = F. nucleatum ATCC 25586, value in brackets
[11] = M. luteus ATCC 10240, value in brackets
[12] = B. fragilis ATCC 10240, value in brackets
[13] = C. jejunii ATCC 33291, value in brackets
[14] = Fusobacterium nucleatum, ATCC25586

Compound: Cc1ncc([N+](=O)[O-])n1CCO.Cc1ncc([N+](=O)[O-])n1CCO.Cc1ncc([N+](=O)[O-])n1CCO.Cc1ncc([N+](=O)[O-])n1CCO.O=S(=O)([O-])[O-].[Ag+].[Ag+] [[Ag(MTZ)2]2SO4]
- lowest concentration with significant (p ≤ 0.05) effect (Balb/c 3T3 cells [1]; Balb/c 3T3, MTT, Figure 6): 5.0 µM
- MBC (H. pylori ATCC 43504; H. pylori ATCC 43504): 31.3 mg/L
- MIC (H. pylori ATCC 43504; H. pylori ATCC 43504): 7.8 mg/L
- MBC (H. pylori ATCC 43504; [4]): 0.03 µM/mL
- MIC (H. pylori ATCC 43504; [4]): 0.008 µM/mL
- MBC (A. israeli ATCC 10049; A. israeli ATCC 10049): 15.6 mg/L
- MIC (A. israeli ATCC 10049; A. israeli ATCC 10049): 7.8 mg/L
- MBC (A. israeli ATCC 10049; [5]): 0.014 µM/mL
- MIC (A. israeli ATCC 10049; [5]): 0.007 µM/mL
- MBC (P. acnes ATCC 11827; P. acnes ATCC 11827): 500 mg/L
- MBC (P. acnes ATCC 11827; [6]): 0.46 µM/mL
- MIC (P. acnes ATCC 11827; [6]): 0.12 µM/mL
- MBC (E. coli ATCC 25922; E. coli ATCC 25922): 31.3 mg/L
- MIC (E. coli ATCC 25922; E. coli ATCC 25922): 15.6 mg/L
- MBC (E. coli ATCC 25922; [7]): 0.03 µM/mL
- MIC (E. coli ATCC 25922; [7]): 0.014 µM/mL
- lowest concentration with significant (p ≤ 0.05) effect (Balb/c 3T3 cells [2]; Balb/c 3T3, NRU, Figure 6): 5.0 µM
- MIC (B. cereus ATCC 10876; B. cereus ATCC 10876): 62.5 mg/L
- MBC (B. cereus ATCC 10876; [8]): 0.12 µM/mL
- MIC (B. cereus ATCC 10876; [8]): 0.06 µM/mL
- MBC ([3]; S. typhimurium ATCC 14028): 62.5 mg/L
- MIC ([3]; S. typhimurium ATCC 14028): 15.6 mg/L
- MBC [3, 9]: 0.06 µM/mL
- MIC [3, 9]: 0.014 µM/mL
- MBC (F. nucleatum ATCC 25586; F. nucleatum ATCC 25586): 0.49 mg/L
- MIC (F. nucleatum ATCC 25586; F. nucleatum ATCC 25586): 0.49 mg/L
- MBC (F. nucleatum ATCC 25586; [10]): 0.0004 µM/mL
- MIC (F. nucleatum ATCC 25586; [10]): 0.0004 µM/mL
- lowest concentration with significant (p ≤ 0.05) disintegration of cellular membranes (Caco-2 cells; Figure 6): 0.5 µM
- MIC (M. luteus ATCC 10240; M. luteus ATCC 10240): 7.8 mg/L
- MBC (M. luteus ATCC 10240; [11]): 0.12 µM/mL
- MIC (M. luteus ATCC 10240; [11]): 0.007 µM/mL
- MBC (B. fragilis ATCC 10240; B. fragilis ATCC 10240): 0.98 mg/L
- MIC (B. fragilis ATCC 10240; B. fragilis ATCC 10240): 0.24 mg/L
- MBC (B. fragilis ATCC 10240; [12]): 0.0009 µM/mL
- MIC (B. fragilis ATCC 10240; [12]): 0.0002 µM/mL
- MBC (C. jejunii ATCC 33291; C. jejunii ATCC 33291): 500 mg/L
- MBC (C. jejunii ATCC 33291; [13]): 0.46 µM/mL
- MIC (C. jejunii ATCC 33291; [13]): 0.23 µM/mL
- MIC (C. jejunii ATCC 33291; C. jejunii ATCC 33291, listed as [Ag(MTZ)2]2SO4·5H2O): 250 mg/L

Compound: Cc1ncc([N+](=O)[O-])n1CCO [MTZ, 2-Methyl-5-nitroimidazole-1-ethanol]
- IC50 (Balb/c 3T3 cells [1]; Mus musculus, BALB/c3T3, Balb/c 3T3, MTT, mean ± SD, n = 3): > 10 µM
- MBC (H. pylori ATCC 43504; [4]): 0.09 µM/mL
- MIC (H. pylori ATCC 43504; [4]): 0.09 µM/mL
- MBC (H. pylori ATCC 43504; Helicobacter pylori, ATCC43504, H. pylori ATCC 43504, read-out: MBC): 15.6 mg/L (≈ 91.1 µM)
- MIC (H. pylori ATCC 43504; Helicobacter pylori, ATCC43504, H. pylori ATCC 43504, read-out: MIC): 15.6 mg/L (≈ 91.1 µM)
- MBC (A. israeli ATCC 10049; [5]): > 5.85 µM/mL
- MIC (A. israeli ATCC 10049; [5]): > 5.85 µM/mL
- MBC (A. israeli ATCC 10049; Actinomyces israelii, ATCC10049, A. israeli ATCC 10049, read-out: MBC): > 1000 mg/L
- MIC (A. israeli ATCC 10049; Actinomyces israelii, ATCC10049, A. israeli ATCC 10049, read-out: MIC): > 1000 mg/L
- MBC (P. acnes ATCC 11827; Cutibacterium acnes, ATCC11827, P. acnes ATCC 11827, read-out: MBC): > 1000 mg/L
- MIC (P. acnes ATCC 11827; Cutibacterium acnes, ATCC11827, P. acnes ATCC 11827, read-out: MIC): > 1000 µg/mL
- MBC (P. acnes ATCC 11827; [6]): > 5.85 µM/mL
- MIC (P. acnes ATCC 11827; [6]): > 5.85 µM/mL
- MBC (E. coli ATCC 25922; [7]): > 5.85 µM/mL
- MIC (E. coli ATCC 25922; [7]): > 5.85 µM/mL
- MBC (E. coli ATCC 25922; Escherichia coli, ATCC25922, E. coli ATCC 25922, read-out: MBC): > 1000 mg/L
- MIC (E. coli ATCC 25922; Escherichia coli, ATCC25922, E. coli ATCC 25922, read-out: MIC): > 1000 mg/L
- IC50 (Balb/c 3T3 cells [2]; Mus musculus, BALB/c3T3, Balb/c 3T3, NRU, mean ± SD, n = 3): > 10 µM
- MBC (B. cereus ATCC 10876; [8]): > 5.85 µM/mL
- MIC (B. cereus ATCC 10876; [8]): 2.93 µM/mL
- MBC (B. cereus ATCC 10876; Bacillus cereus, ATCC10876, B. cereus ATCC 10876, read-out: MBC): > 1000 µg/mL
- MIC (B. cereus ATCC 10876; Bacillus cereus, ATCC10876, B. cereus ATCC 10876, read-out: MIC): 500 mg/L (≈ 2920 µM)
- MBC [3, 9]: > 5.85 µM/mL
- MIC [3, 9]: > 5.85 µM/mL
- MBC ([3]; Salmonella enterica, S. typhimurium ATCC 14028, read-out: MBC): > 1000 mg/L
- MIC ([3]; Salmonella enterica, S. typhimurium ATCC 14028, read-out: MIC): > 1000 mg/L
- MBC (F. nucleatum ATCC 25586; [10]): 0.01 µM/mL
- MIC (F. nucleatum ATCC 25586; [10]): 0.01 µM/mL
- MBC (F. nucleatum ATCC 25586; [14]): 1.95 mg/L (≈ 11.4 µM)
- MIC (F. nucleatum ATCC 25586; [14]): 1.95 mg/L (≈ 11.4 µM)
- IC50 (Caco-2 cells; Homo sapiens, mean ± SD, n = 3): > 10 µM
- MBC (M. luteus ATCC 10240; [11]): > 5.85 µM/mL
- MIC (M. luteus ATCC 10240; [11]): 5.85 µM/mL
- MBC (M. luteus ATCC 10240; Micrococcus luteus, ATCC10240, M. luteus ATCC 10240, read-out: MBC): > 1000 µg/mL
- MIC (M. luteus ATCC 10240; Micrococcus luteus, ATCC10240, M. luteus ATCC 10240, read-out: MIC): 1000 mg/L (≈ 5840 µM)
- MBC (B. fragilis ATCC 10240; [12]): 0.003 µM/mL
- MIC (B. fragilis ATCC 10240; [12]): 0.003 µM/mL
- MBC (B. fragilis ATCC 10240; Bacteroides fragilis, ATCC10240, B. fragilis ATCC 10240, read-out: MBC): 0.49 mg/L (≈ 2.86 µM)
- MIC (B. fragilis ATCC 10240; Bacteroides fragilis, ATCC10240, B. fragilis ATCC 10240, read-out: MIC): 0.49 mg/L (≈ 2.86 µM)
- MBC (C. jejunii ATCC 33291; [13]): > 5.85 µM/mL
- MIC (C. jejunii ATCC 33291; [13]): 2.93 µM/mL
- MBC (C. jejunii ATCC 33291; Campylobacter, ATCC33291, C. jejunii ATCC 33291, read-out: MBC): > 1000 mg/L
- MIC (C. jejunii ATCC 33291; Campylobacter, ATCC33291, C. jejunii ATCC 33291, read-out: MIC): 500 mg/L (≈ 2920 µM)
